Assay results as given in PubChem BioAssay AID248 (DTP/NCI, 2004).
Inconclusive results and toxic doses are left out. No stated cut-off is given here; in the data, active means T/C of 150% or more; inactive means T/C below 125%. Square brackets hold non-standard residues; d marks the D form. Peptide text beside a SMILES is read from it. * marks the point of attachment. ξ: configuration not given here. Cbz = O=C(OCc1ccccc1)*; ξNle = CCCCC(N)C(=O)O

System: L1210 leukemia ip in BDF1 mice, survival T/C
Assay: NCI In Vivo Anticancer Drug Screen. Data for tumor model L1210 Leukemia (intraperitoneal) in B6D2F1 (BDF1) mice
Settings: endpoint: mean survival time, higher = longer survival
In short: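 Each compound was tested against a transplantable tumor grown in mice. The endpoint was survival, with treated animals benchmarked against vehicle controls as a simple ratio.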

[1] = dose: 50.0 mg/kg/injection, schedule: Q01DX009 (ip), vehicle: saline with Tween-80
[2] = dose: 100.0 mg/kg/injection, schedule: Q01DX009 (ip), vehicle: saline with Tween-80
[3] = dose: 200.0 mg/kg/injection, schedule: Q01DX009 (ip), vehicle: saline with Tween-80
[4] = dose: 12.5 mg/kg/injection, schedule: Q01DX009 (ip), vehicle: saline
[5] = dose: 25.0 mg/kg/injection, schedule: Q01DX009 (ip), vehicle: saline
[6] = dose: 100.0 mg/kg/injection, schedule: Q01DX001 (ip), vehicle: carboxymethylcellulose (CMC)
[7] = dose: 200.0 mg/kg/injection, schedule: Q01DX001 (ip), vehicle: carboxymethylcellulose (CMC)
[8] = dose: 400.0 mg/kg/injection, schedule: Q01DX001 (ip), vehicle: carboxymethylcellulose (CMC)
[9] = dose: 100.0 mg/kg/injection, schedule: Q04DX003 (ip), vehicle: saline
[10] = dose: 100.0 mg/kg/injection, schedule: Q01DX001 (ip), vehicle: saline
[11] = dose: 100.0 mg/kg/injection, schedule: Q01DX009 (ip), vehicle: saline
[12] = dose: 200.0 mg/kg/injection, schedule: Q01DX009 (ip), vehicle: saline
[13] = dose: 200.0 mg/kg/injection, schedule: Q04DX003 (ip), vehicle: saline
[14] = dose: 400.0 mg/kg/injection, schedule: Q01DX009 (ip), vehicle: saline
[15] = dose: 400.0 mg/kg/injection, schedule: Q04DX003 (ip), vehicle: saline
[16] = dose: 400.0 mg/kg/injection, schedule: Q01DX009 (ip), vehicle: saline with Tween-80
[17] = dose: 200.0 mg/kg/injection, schedule: Q01DX001 (ip), vehicle: saline
[18] = dose: 100.0 mg/kg/injection, schedule: Q04DX002 (ip), vehicle: saline with Tween-80
[19] = dose: 200.0 mg/kg/injection, schedule: Q04DX002 (ip), vehicle: saline with Tween-80
[20] = dose: 400.0 mg/kg/injection, schedule: Q04DX002 (ip), vehicle: saline with Tween-80
[21] = dose: 100.0 mg/kg/injection, schedule: Q01DX001 (ip), vehicle: Klucel (hydroxypropylcellulose) (HPC)
[22] = dose: 200.0 mg/kg/injection, schedule: Q01DX001 (ip), vehicle: Klucel (hydroxypropylcellulose) (HPC)
[23] = dose: 400.0 mg/kg/injection, schedule: Q01DX001 (ip), vehicle: Klucel (hydroxypropylcellulose) (HPC)

Measured: T/C

O=C(CCCl)OCCCl
inactive: dose: 50.0 mg/kg/injection, schedule: Q01DX009 (ip), vehicle: saline sonified 94 % of control | dose: 100.0 mg/kg/injection, schedule: Q01DX009 (ip), vehicle: saline sonified 96 % of control | dose: 200.0 mg/kg/injection, schedule: Q01DX009 (ip), vehicle: saline sonified 94 % of control

CCCCC(NC(=O)OCc1ccccc1)C(=O)NCC(=O)OCC (stereo not given) (Cbz-[ξNle]-Gly-OEt)
inactive: [1] 97 % of control | [2] 97 % of control | [3] 104 % of control

C=C(C)CSc1ncnc2nc[nH]c12
inactive: dose: 52.0 mg/kg/injection, schedule: Q01DX Z (ip), vehicle: other 112 % of control | dose: 80.0 mg/kg/injection, schedule: Q01DX Z (ip), vehicle: other 112 % of control | dose: 120.0 mg/kg/injection, schedule: Q01DX Z (ip), vehicle: other 124 % of control

CCN(CC)c1ccc(N=Cc2ccccc2S(=O)(=O)O)cc1
inactive: dose: 6.25 mg/kg/injection, schedule: Q01DX009 (ip), vehicle: saline 95 % of control | dose: 6.25 mg/kg/injection, schedule: Q04DX003 (ip), vehicle: saline sonified 97 % of control | [4] 96 % of control | dose: 12.5 mg/kg/injection, schedule: Q04DX003 (ip), vehicle: saline sonified 103 % of control | [5] 93 % of control | dose: 25.0 mg/kg/injection, schedule: Q04DX003 (ip), vehicle: saline sonified 110 % of control

CC1(C)C/C(=C/c2ccc([N+](=O)[O-])cc2[N+](=O)[O-])C(=O)O1
inactive: dose: 50.0 mg/kg/injection, schedule: Q01DX001 (ip), vehicle: carboxymethylcellulose (CMC) 100 % of control | [6] 94 % of control | [7] 94 % of control | [8] 100 % of control

CCCCCCCCCCCCNC(=O)C[n+]1cccc(C(N)=O)c1
inactive: [9] 96 % of control

O=c1oc2ccc(N=Cc3ccc4c(c3)OCO4)cc2c2ccccc12
inactive: dose: 100.0 mg/kg/injection, schedule: Q01DX001 (ip), vehicle: other 91 % of control | dose: 200.0 mg/kg/injection, schedule: Q01DX001 (ip), vehicle: other 93 % of control | dose: 400.0 mg/kg/injection, schedule: Q01DX001 (ip), vehicle: other 93 % of control

CCCCCN1C(=O)NC(=O)C(Cl)C1=O (stereo not given)
inactive: [10] 89 % of control

O=C1NC2(C(=O)O1)C1CC3CC(C1)CC2C3 (stereo not given)
inactive: [4] 108 % of control | [5] 107 % of control | dose: 50.0 mg/kg/injection, schedule: Q01DX009 (ip), vehicle: saline 105 % of control | dose: 100.0 mg/kg/injection, schedule: Q04DX003 (ip), vehicle: alcohol 100 % of control | dose: 200.0 mg/kg/injection, schedule: Q04DX003 (ip), vehicle: alcohol 90 % of control | dose: 400.0 mg/kg/injection, schedule: Q04DX003 (ip), vehicle: alcohol 100 % of control

CCOC(=O)C1=C(O)c2c(sc(C)c2C)N(S(=O)(=O)c2ccc(C)cc2)CC1
inactive: [1] 93 % of control | dose: 50.0 mg/kg/injection, schedule: Q04DX003 (ip), vehicle: saline with Tween-80 97 % of control | [2] 90 % of control | dose: 100.0 mg/kg/injection, schedule: Q04DX003 (ip), vehicle: saline with Tween-80 101 % of control | [3] 96 % of control | dose: 200.0 mg/kg/injection, schedule: Q04DX003 (ip), vehicle: saline with Tween-80 93 % of control | dose: 400.0 mg/kg/injection, schedule: Q04DX003 (ip), vehicle: saline with Tween-80 98 % of control

COC(=O)C1CCN1C(C)(C)C (stereo not given)
inactive: [11] 95 % of control | [9] 111 % of control | [12] 95 % of control | [13] 105 % of control | [14] 103 % of control | [15] 110 % of control

CCCCCCCCCC(=O)N/N=C/c1cccc([N+](=O)[O-])c1
inactive: [2] 97 % of control | [3] 91 % of control | [16] 100 % of control

CC(=O)Oc1ccc2c(c1)C(=O)C(Br)C1C2CCC2(C)C(OC(C)=O)CCC12 (stereo not given)
inactive: dose: 30.0 mg/kg/injection, schedule: Q01DX015 (sc), vehicle: steriod suspending solution 96 % of control | dose: 60.0 mg/kg/injection, schedule: Q01DX015 (sc), vehicle: steriod suspending solution 97 % of control | dose: 100.0 mg/kg/injection, schedule: Q01DX001 (sc), vehicle: steriod suspending solution 116 % of control | dose: 120.0 mg/kg/injection, schedule: Q01DX015 (sc), vehicle: steriod suspending solution 97 % of control | dose: 200.0 mg/kg/injection, schedule: Q01DX001 (sc), vehicle: steriod suspending solution 104 % of control | dose: 240.0 mg/kg/injection, schedule: Q01DX015 (sc), vehicle: steriod suspending solution 100 % of control | dose: 400.0 mg/kg/injection, schedule: Q01DX001 (sc), vehicle: steriod suspending solution 96 % of control

C/C1=C/CCCCCC1
inactive: [10] 90 % of control | [11] 96 % of control | [9] 96 % of control | [17] 101 % of control | [12] 89 % of control | [13] 101 % of control | [14] 94 % of control | [15] 98 % of control

Cc1cc(C)n2[nH]c(=O)cc2n1
inactive: [18] 98 % of control | [19] 104 % of control | [20] 106 % of control

CN(C(=O)Cc1ccccc1)c1ccccc1[N+](=O)[O-]
inactive: dose: 50.0 mg/kg/injection, schedule: Q01DX001 (ip), vehicle: saline 98 % of control | [10] 104 % of control | [17] 95 % of control | dose: 400.0 mg/kg/injection, schedule: Q01DX001 (ip), vehicle: saline 101 % of control

CCCCC(CCCC)C(=O)O
inactive: [6] 111 % of control | [7] 92 % of control | [8] 101 % of control

NCC(O)C(F)(F)F (stereo not given)
inactive: [6] 109 % of control | [7] 97 % of control | [8] 118 % of control

CCOC(=O)c1nc2c(C)nc(N)nc2[nH]c1=O
inactive: [21] 107 % of control | [22] 111 % of control | [23] 96 % of control

N#CC(C#N)=Cc1cc(Cl)ccc1O
inactive: [10] 96 % of control | [17] 96 % of control

CCCCCCCCC(O)CCCCCCCCC(=O)O (stereo not given)
inactive: [2] 101 % of control | [3] 97 % of control | [16] 86 % of control

CCOC(=S)SC/C=C/CSC(=S)OCC
inactive: [18] 97 % of control | [19] 103 % of control | [20] 107 % of control

CC(=O)[O][Hg][c]1c(C)c(C)cc(C)c1C
inactive: dose: 6.25 mg/kg/injection, schedule: Q04DX003 (ip), vehicle: saline with Tween-80 93 % of control | dose: 12.5 mg/kg/injection, schedule: Q04DX003 (ip), vehicle: saline with Tween-80 87 % of control | dose: 25.0 mg/kg/injection, schedule: Q04DX003 (ip), vehicle: saline with Tween-80 95 % of control

CN(CC(=O)O)C(=O)CN=Cc1ccccc1
inactive: [9] 96 % of control | [13] 97 % of control | [15] 97 % of control

CCCCCCc1c(C)nc(N)[nH]c1=O
inactive: [21] 92 % of control | dose: 100.0 mg/kg/injection, schedule: Q01DX009 (ip), vehicle: Klucel (hydroxypropylcellulose) (HPC) 105 % of control | [22] 89 % of control | dose: 200.0 mg/kg/injection, schedule: Q01DX009 (ip), vehicle: Klucel (hydroxypropylcellulose) (HPC) 100 % of control | [23] 92 % of control | dose: 400.0 mg/kg/injection, schedule: Q01DX009 (ip), vehicle: Klucel (hydroxypropylcellulose) (HPC) 97 % of control

CC(N)CNc1ccccc1 (stereo not given)
inactive: dose: 12.5 mg/kg/injection, schedule: Q04DX003 (ip), vehicle: water 105 % of control | dose: 25.0 mg/kg/injection, schedule: Q04DX003 (ip), vehicle: water 98 % of control | dose: 50.0 mg/kg/injection, schedule: Q04DX003 (ip), vehicle: water 104 % of control
